Activity calls are given as the source filed them. The rule behind the calls is not given here.

Experimental findings from ChEMBL document CHEMBL4837230, “Thiophene-2-carboxamide derivatives of anthraquinone: A new potent antitumor chemotype” (Eur J Med Chem, 2021) are described below.

A short description of data set [1]: Cytotoxicity in human DND41 cells assessed as reduction in cell viability incubated for 72 hrs by MTT assay. The format is functional, cell-based. The settings on record: DND41, 72 h.
The test system of data set [2] is CAPAN-1. Description: Cytotoxicity in human CAPAN-1 cells assessed as reduction in cell viability incubated for 72 hrs by MTT assay. The data set is classed as functional, cell-based. The settings on record: CAPAN-1, 72 h.
The test system of data set [3] is HL-60. The data set can be described thus: Cytotoxicity in human HL-60 cells assessed as reduction in cell viability incubated for 72 hrs by MTT assay. The format is functional, cell-based. The settings on record: HL-60, 72 h.
Data set [4] has as its system NCI-H460. The data set can be described thus: Cytotoxicity in human NCI-H460 cells assessed as reduction in cell viability incubated for 72 hrs by MTT assay. The format is functional, cell-based. The settings on record: NCI-H460, 72 h.
Data set [5] has as its system Fibroblast. The data set can be described thus: Cytotoxicity in human Fibroblast cells assessed as reduction in cell viability incubated for 72 hrs by MTT assay. The data set is classed as functional, cell-based.
Data set [6] can be described thus: Drug localization in cytoplasm of mouse NIH3T3 cells at 1 uM incubated for 5 to 60 mins by laser confocal microscopy. The format is ADME, cell-based. As to conditions: nih3t3, 1 µM, time 5-60 min.
Data set [7] has as its system K562. The data set can be described thus: Induction of cell cycle arrest in human K562 cells assessed as increase in accumulation at sub-G1 phase at 5 uM after 48 hrs by propidium iodide staining based flow cytometric analysis (reference value: 8.4%). The data set is classed as functional.
Data set [8] in a line: Drug localization in mitochondria of mouse NIH3T3 cells at 1 uM measured after 5 mins by MitoTracker red based confocal microscopic method. As to conditions: nih3t3, 5 min. The format is ADME.
Data set [9] is described as follows: Drug localization in mitochondria of mouse NIH3T3 cells at 1 uM measured after 60 mins by MitoTracker red based confocal microscopic method. The format is ADME. As to conditions: nih3t3, 1 h.
Data set [10] concerns HeLa. Description: Cytotoxicity in human HeLa cells assessed as reduction in cell viability incubated for 72 hrs by MTT assay. The format is functional, cell-based.
Data set [11] concerns K562. Description: Induction of apoptosis in human K562 cells assessed as activation of PARP cleavage measured after 24 hrs by Western blot analysis. The format is functional, cell-based.
Data set [12] concerns Calf thymus DNA. Description: Binding affinity to calf thymus double strand DNA incubated for 5 mins by spectrophotometry. The format is nucleic-acid assay. As to conditions: Bos taurus.
The subject of data set [13] is K562. The data set can be described thus: Induction of mitochondrial membrane potential loss in human K562 cells at 7.5 uM after 6 hrs by Mitotracker Red dye based flow cytometric analysis. The data set is classed as functional, cell-based.
For data set [14], the system named is K562. Description: Induction of cell cycle arrest in human K562 cells assessed as increase in accumulation at sub-G1 phase at 5 uM after 24 hrs by propidium iodide staining based flow cytometric analysis (reference value: 8.4%). The format is functional.
Data set [15] in a line: Drug localization in lysosome of mouse NIH3T3 cells at 1 uM incubated for 5 mins by lyso-tracker red based confocal microscopic method. The data set is classed as ADME, cell-based. As to conditions: nih3t3, 5 min.
Data set [16] is described as follows: Resistance index, ratio of IC50 for cytotoxicity against p53 knock out human HCT-116 cells to IC50 for cytotoxicity against human HCT-116 cells. The data set is classed as functional.
Data set [17] deals with K562. Description: Induction of apoptosis in human K562 cells assessed as activation of casapse-3 cleavage measured after 24 hrs by Western blot analysis. The settings on record: dose 2.5 µM. The format is functional, cell-based.
The nature of data set [18]: Drug localization in nuclei of mouse NIH3T3 cells at 1 uM incubated for 5 to 60 mins by Hoechst 33258 staining based laser confocal microscopy. The data set is classed as ADME, cell-based. The settings on record: nih3t3, 1 µM, time 5-60 min.
Data set [19] can be described thus: Resistance index, ratio of IC50 for cytotoxicity against human K562/4 cells to IC50 for cytotoxicity against human K562 cells. The data set is classed as functional.
In data set [20] the target is T1, DNA topoisomerase 1 (Homo sapiens) (UniProt P11387).
T1 sequence (whole entry): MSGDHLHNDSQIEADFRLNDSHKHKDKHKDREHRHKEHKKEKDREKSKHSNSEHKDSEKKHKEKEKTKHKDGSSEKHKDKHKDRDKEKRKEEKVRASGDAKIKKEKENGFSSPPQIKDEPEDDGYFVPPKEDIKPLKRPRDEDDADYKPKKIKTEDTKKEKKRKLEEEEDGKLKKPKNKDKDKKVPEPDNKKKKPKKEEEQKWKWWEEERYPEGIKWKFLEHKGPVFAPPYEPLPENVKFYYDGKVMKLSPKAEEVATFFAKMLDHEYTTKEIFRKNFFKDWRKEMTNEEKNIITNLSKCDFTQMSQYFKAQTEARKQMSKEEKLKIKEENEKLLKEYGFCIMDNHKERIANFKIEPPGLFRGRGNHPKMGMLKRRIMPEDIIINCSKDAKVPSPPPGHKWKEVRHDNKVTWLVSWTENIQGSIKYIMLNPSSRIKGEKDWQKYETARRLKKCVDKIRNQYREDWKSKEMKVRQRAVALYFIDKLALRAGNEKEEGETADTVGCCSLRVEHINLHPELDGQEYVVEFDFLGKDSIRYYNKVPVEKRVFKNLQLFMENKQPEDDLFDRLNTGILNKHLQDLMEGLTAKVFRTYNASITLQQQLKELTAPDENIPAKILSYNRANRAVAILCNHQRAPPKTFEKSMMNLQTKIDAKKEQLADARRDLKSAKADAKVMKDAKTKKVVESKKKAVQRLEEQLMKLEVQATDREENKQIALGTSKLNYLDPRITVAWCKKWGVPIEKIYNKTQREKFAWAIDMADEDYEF
The data set can be described thus: Inhibition of topoisomerase 1 (unknown origin) assessed as relaxation of supercoiled plasmid pBR322 DNA at 1 to 5 uM incubated for 30 mins by electrophoresis. As to conditions: dose 1-5 µM.

In data set [21] the test system is K562. The data set can be described thus: Induction of cell cycle arrest in human K562 cells assessed as increase in accumulation at sub-G1 phase at 0.5 uM after 48 hrs by propidium iodide staining based flow cytometric analysis (reference value: 8.4%). The data set is classed as functional.
Data set [22] deals with K562. Description: Induction of cell cycle arrest in human K562 cells assessed as increase in accumulation at sub-G1 phase at 2.5 uM after 24 hrs by propidium iodide staining based flow cytometric analysis (reference value: 8.4%). The format is functional.
For data set [23], the system named is K562. The data set can be described thus: Induction of apoptosis in human K562 cells assessed as activation of casapse-9 cleavage measured after 24 hrs by Western blot analysis. The format is functional, cell-based.
The nature of data set [24]: Drug localization in lysosome of mouse NIH3T3 cells at 1 uM incubated for 60 mins by lyso-tracker red based confocal microscopic method. The data set is classed as ADME, cell-based. The settings on record: nih3t3, 1 h.
Data set [25] deals with K562. The data set can be described thus: Induction of cell cycle arrest in human K562 cells assessed as increase in accumulation at sub-G1 phase at 2.5 uM after 48 hrs by propidium iodide staining based flow cytometric analysis (reference value: 8.4%). The format is functional.
For data set [26], the system named is HCT-116. Description: Cytotoxicity in human HCT-116 cells assessed as reduction in cell viability incubated for 72 hrs by MTT assay. The format is functional, cell-based. As to conditions: HCT-116, 72 h.
The nature of data set [27]: Cytotoxicity in human K562/4 cells assessed as reduction in cell viability incubated for 72 hrs by MTT assay. The data set is classed as functional, cell-based. As to conditions: K562/4, 72 h.
The test system of data set [28] is K562. Description: Induction of cell cycle arrest in human K562 cells assessed as increase in accumulation at sub-G1 phase at 0.5 uM after 24 hrs by propidium iodide staining based flow cytometric analysis (reference value: 8.4%). The data set is classed as functional.
Data set [29] deals with HCT-116. Description: Cytotoxicity against p53 knock out human HCT-116 cells assessed as reduction in cell viability incubated for 72 hrs by MTT assay. The data set is classed as functional, cell-based. The settings on record: HCT-116, 72 h.
Data set [30] concerns K562. Description: Induction of ROS generation in human K562 cells at 5 uM after 30 to 60 mins by Deep Red dye based flow cytometry method. The settings on record: time 30-60 min. The format is functional, cell-based.

For `NCCNC(=O)c1cc2c(O)c3c(c(O)c2s1)C(=O)c1ccccc1C3=O`, the IC50 was 3700 nM in [1], more than 20000 nM in data set [2], more than 20000 nM in data set [3] and 8300 nM in [4].

On to `O=C(NC1CCNCC1)c1cc2c(O)c3c(c(O)c2s1)C(=O)c1ccccc1C3=O`, for which the IC50 amounted to 1600 nM in data set [1], 600 nM in data set [2], 3200 nM in data set [3] and 1400 nM in data set [4].

Take `N[C@H]1CCN(C(=O)c2csc3c(O)c4c(c(O)c23)C(=O)c2ccccc2C4=O)C1`: in data set [1], the IC50 was 2600 nM.

For the molecule `N[C@@H]1CN(C(=O)c2cc3c(O)c4c(c(O)c3s2)C(=O)c2ccccc2C4=O)C[C@H]1N`, the half-inhibitory concentration (IC50) in data set [1] is 10900 nM; in [2] it was more than 20000 nM; in data set [3] it was more than 20000 nM; in data set [4], 16100 nM.

Consider `N[C@@H]1CCN(C(=O)c2cc3c(O)c4c(c(O)c3s2)C(=O)c2ccccc2C4=O)C1`, for which the IC50 worked out at 400 nM in data set [1], 1500 nM in data set [2], 1100 nM in [3] and 400 nM in data set [4].

Turning to `COc1cccc2c1C(=O)c1c(O)c3c(c(O)c1C2=O)C[C@@](O)(C(=O)CO)C[C@@H]3O[C@H]1C[C@H](N)[C@H](O)[C@H](C)O1` [DOXORUBICIN], the IC50 was found to be 700 nM in data set [1], 1700 nM in data set [2], 200 nM in data set [5] and 400 nM in data set [4].

Regarding `O=C(NC1CCCNC1)c1cc2c(O)c3c(c(O)c2s1)C(=O)c1ccccc1C3=O` (racemic), the IC50 in data set [1] was determined as 1000 nM; in [2], 2300 nM; in data set [3] it was 1100 nM; in data set [4], 1400 nM.

With `Cc1c(C(=O)N2CC[C@@H](N)C2)sc2c(O)c3c(c(O)c12)C(=O)c1ccccc1C3=O`, the half-maximal inhibitory concentration (IC50) in data set [1] was found to be 1400 nM; in [2] it was 2000 nM; in [3], 1800 nM; in [4], 1200 nM.

As for `O=C(N[C@H]1CCNC1)c1cc2c(O)c3c(c(O)c2s1)C(=O)c1ccccc1C3=O`, the IC50 turned out to be 1000 nM in data set [1], 6300 nM in data set [2], 2900 nM in data set [3] and 3500 nM in [4].

As for `O=C(NC1CN2CCC1CC2)c1cc2c(O)c3c(c(O)c2s1)C(=O)c1ccccc1C3=O` (stereo not drawn), the 50% inhibitory concentration (IC50) was 2400 nM in data set [1], 4600 nM in data set [2], 7300 nM in data set [3] and more than 20000 nM in [4].

As for `NCCN(CCN)C(=O)c1cc2c(O)c3c(c(O)c2s1)C(=O)c1ccccc1C3=O`, the 50% inhibitory concentration (IC50) was determined as 3100 nM in [1], 16800 nM in data set [2], 14100 nM in data set [3] and 8300 nM in [4].

As for `O=C(N[C@@H]1CCNC1)c1cc2c(O)c3c(c(O)c2s1)C(=O)c1ccccc1C3=O`, the IC50 in [1] amounted to 1300 nM; in [2], 5800 nM; in [3] it was 2700 nM; in data set [4], 4100 nM.

With `NC1CCCN(C(=O)c2cc3c(O)c4c(c(O)c3s2)C(=O)c2ccccc2C4=O)C1` (racemic), the half-maximal inhibitory concentration (IC50) was 600 nM in data set [1], 1200 nM in data set [2], 400 nM in data set [3] and 400 nM in [4].

For the molecule `N[C@H]1CCN(C(=O)c2cc3c(O)c4c(c(O)c3o2)C(=O)c2ccccc2C4=O)C1`, the Drug uptake result in data set [6] is given as “Active”; in [8], “Not Active”; in [9], “Not Active”; in [15], “Active”; in [18], “Not Active”; in data set [24], “Active”. In addition, the Activity in [7] is recorded as 48.7%; in [14], 40.2%; in data set [21], 7%; in data set [22], 24.2%; in data set [25] it was 23%; in data set [28], 14.8%. The IC50 is 1500 nM in [1]; more than 50000 nM in data set [10]; more than 20000 nM in [2]; 700 nM in [3]; more than 50000 nM in data set [26]; 600 nM in [27]. Moreover, the IC50 in [5] was more than 50000 nM; in data set [4], more than 20000 nM; in data set [29] it was more than 50000 nM. Also, the outcome in data set [11], in data set [13], in [17], in data set [23] and in [30] was inactive. Besides, the outcome in data set [12] was Active. In addition, the Ratio in data set [16] is reported as 1; in data set [19], 1.2. Also, in [20], the inhibition entry is “Active”.

Take `Cc1c(C(=O)N2CC[C@H](N)C2)sc2c(O)c3c(c(O)c12)C(=O)c1ccccc1C3=O`: the IC50 was 1600 nM in [1], 2200 nM in [2], 200 nM in data set [3] and 5000 nM in [4].
